Starred links: 1 amine or outer side, 2 acyl side, 3 side chain; linkers in the order of their positions; H or OH if unused. Positions of bridges follow the written chain, without caps; N, C: chain ends. Chains are numbered I, II in the order given. BMOE = O=C1CC([*:1])C(=O)N1CCN1C(=O)CC([*:2])C1=O
Assays:
[1] = Cytotoxicity on normal B-cells from volunteers; format: cell-based, human; details: human, normal B-cells from volunteers
Description: Blood from CLL patients was collected and CD5+/CD19+ CLL cells were isolated using the RosetteSep™ Human B-Cell Enrichment Cocktail, according to the manufacturer's instructions, and treated with COG compounds. Compounds were applied to B-CLL cells (2.5×10^5 cells/well in a 96 well plate), after which the cells were treated for 72 hours.
Normal B-cells from volunteers and B-CLL cells from patients are isolated using the RosetteSep™ Human B Cell Enrichment Cocktail according to the manufacturer's instructions. This method depletes whole blood of T cells, monocytes, and NK cells using a proprietary antibody cocktail that cross-links unwanted cells in human whole blood to multiple red blood cells (RBCs) forming immunorosettes. This increases the density of the unwanted (rosetted) cells, such that they pellet along with the free RBCs when centrifuged over a buoyant density medium such as Ficoll-Paque®. This leaves the highly enriched B-cell or B-CLL cells at the interface between Ficoll and the plasma. The antibodies in the cocktail contain anti-CD14, anti-CD2 and anti-CD16 antibodies to remove T cells, monocytes, and NK cells, respectively. The purity of these B-cell and B-CLL preparations is then determined by flow cytometry. Preparations typically average less than 2% CD3+ T-cells and less than 0.5% CD14+ monocytes. In the case of B-CLL cell isolation, we routinely obtain preparations that contain less than 1.5% normal CD19+/CD5− B-cells using this method.

[2] = Tolerability of COG449 by intravenous infusion; format: in vivo
breast cancer cell lines = test: Cytotoxicity in breast cancer cell lines by cell counting; format: cell-based, human; details: serum-free media, 24 hrs
Description: FIG. 28. Cytotoxic effects of COG449 in breast cancer cells. Cell lines were grown in serum-free media and COG449 as indicated for 24 hrs. Cellular proliferation was measured by cell counting. Cell number is represented relative to control, untreated cells.

MDA-MB-231 xenografts = test: MDA-MB-231 TNBC xenografts in NSG mice; format: in vivo; details: both xenograft studies
Description: FIGS. 30A-30B. Inhibition of triple negative breast cancer (TNBC) tumor growth in xenografts with COG449 treatment. FIG. 30A: 4×10^6 MDA-MB-231 cells were injected with Matrigel into the 4th mammary glands of immune compromised mice and treated daily by subcutaneous injection of 10 mg/kg COG449 starting at day 10. FIG. 30B: 4×10^6 MDA-MB-231 cells were injected with Matrigel into the 4th mammary glands of immune compromised mice and treated by intravenous tail vein injection 3× week at 1 mg/kg starting at day 27 post injection. Tumor volume was determined by caliper measurement.
To begin assessment of the potential of combination therapies with COG449, we analyzed the effect of treating MDA-231 cells with sub-lethal doses of COG449 and the multi-kinase inhibitor Sorafenib or the EGFR inhibitor Gefitinib at concentrations below their ED50 doses. […] We also evaluated the effects of COG449 in vivo using xenograft experiments. To determine whether COG449 might be effective against TNBC tumors in xenografts, immune compromised NOD/SCID gamma-chain null (NSG) mice were injected with MDA-231 cells into their 4th mammary glands. Once tumors became palpable at around 10 days, tumors were treated by twice weekly subcutaneous injection of COG449 at 10 mg/kg. At 28 days post-xenograft, daily intra-tumor injection of COG449 was initiated and continued until sacrifice (FIG. 30A). […]

PP2A = PP2A activity in 32D:BCR/Abl chronic myelogenous leukemia cells (PP2A immunoprecipitation assay); format: cell-based; details: 1 μM, 30 minutes
Description: FIGS. 4A-4B. The BMOE-linked dimer peptide COG449 activates PP2A in CML cells. FIG. 4A: 32D-BCR/Abl chronic myelogenous leukemia cells were treated with COG449 (1 μM), COG445 (1 μM) (disulfide-linked COG112 dimer) or no treatment, and the PP2A activity was measured. FIG. 4B: 32D:BCR/Abl cell cultures were treated with no compound, 1 μM COG449, or 5 μM FTY720 for 30 minutes followed by lysis in an NP40 lysis buffer. PP2A was immunoprecipitated and assayed with the PP2A Immunoprecipitation assay kit (Upstate) according to the manufacturer's directions.
To further evaluate the effect of COG449, we measured the ability of the stable dimerized COG449 compound to activate PP2A in 32D:p210^BCR/Abl chronic myelogenous leukemia cells. […] 32D:p210^BCR/Abl chronic myelogenous leukemia cells were treated with no compound, 1 μM COG449, or 5 μM FTY720. We observed a robust increase of approximately 45% relative specific activity (phosphate release/minute/unit protein) of PP2A upon treatment with COG449 alone when compared to the untreated control, and about 20% activation compared with FTY720 (FIG. 4B).

[3] = Mouse toxicity, maximum tolerated dose by intravenous injection; details: in vivo, maximum dose by intravenous injection without deaths after 24 hrs
Description: We also evaluated the various peptides for efficacy in suppressing nitric oxide production induced by LPS stimulation of BV2 microglia cells as a measure of anti-inflammatory activity as well as the maximum dose tolerated in mice (Table I and FIG. 6A). For the LPS assay, EC50 is the concentration of compound that caused a 50% suppression of nitric oxide release from BV2 cells following LPS stimulation. For mouse toxicity, MTD is the maximum dose of the compound that can be given by intravenous injection without causing deaths after 24 hrs. […] Coupling the ApoE domain to a protein transduction domain further enhanced the potency of the dimers.

CLL cells = details: 24 h
Description: We next sought to determine whether SET antagonism would destabilize Mcl-1. Destabilization of Mcl-1 by treatment with SET antagonists was evaluated by treating primary human CLL cells for 24 hr with the ApoE peptide dimer COG449 (a BMOE-linked dimer of COG112; see Example 2) and evaluating the level of Mcl-1 in the cells.

MDA-231 cells = test: Combination treatment of MDA-231 cells (MTT); format: cell-based; details: sub-lethal doses, 48 hrs, greater than either compound alone
Description: FIG. 29. Combination treatment with COG449 and sorafenib or gefitinb on triple negative breast cancer (TNBC) cell line growth. MDA-231 cells were grown in the presence of COG449, sorafenib, or gefitinb at sub-lethal doses as indicated. After 48 hrs, live cells were quantified using the MTT assay. *** indicates p<0.001.
To begin assessment of the potential of combination therapies with COG449, we analyzed the effect of treating MDA-231 cells with sub-lethal doses of COG449 and the multi-kinase inhibitor Sorafenib or the EGFR inhibitor Gefitinib at concentrations below their ED50 doses. […] We also evaluated the effects of COG449 in vivo using xenograft experiments. To determine whether COG449 might be effective against TNBC tumors in xenografts, immune compromised NOD/SCID gamma-chain null (NSG) mice were injected with MDA-231 cells into their 4th mammary glands. Once tumors became palpable at around 10 days, tumors were treated by […] subcutaneous injection of COG449 at 10 mg/kg. At 28 days post-xenograft, daily intra-tumor injection of COG449 was initiated and continued until sacrifice (FIG. 30A). In order to use a more clinically relevant treatment paradigm, MDA-231 xenografted mice were treated 3-times a week with 1 mg/kg COG449 by intravenous injection (FIG. 30B).

[4] = system: Ramos cell line of Burkitt's lymphoma; test: Growth of Ramos cells in culture; format: cell-based; details: read-out: EC50 growth inhibition in culture
U87MG glioblastoma cells = format: cell-based; details: MTT
Description: FIG. 14A: Dose response curve of COG445 on proliferation of U87 (open circles) and MDA-MB-231 (filled circles) cells as measured by MTT reduction. FIG. 14B: Dose response curve of COG445 on proliferation of MDA-MB-231 cells as measured by cell count.
To determine whether ApoE peptide dimers were cytotoxic to other types of cancer, we evaluated the effect of three different ApoE BMOE-linked peptide dimers (COG449, COG492, COG493; see Table I) on the growth characteristics of U87MG glioblastoma cells. Various concentrations of COG449, COG492, COG493 or Sorafenib were used to treat U87MG glioblastoma cells and viable cells were quanititated using MTT. Sorafenib, which has previously been reported to be cytotoxic to glioblastoma cells (Yang et al. (2010) Mol Cancer Ther., Vol. 9(4):953-962), was used as a positive control.
Because COG445 inhibited Akt activation and downstream signaling, we examined the effects of COG445 on cellular proliferation. Adherent MB231 and U87 cells were grown for ˜24 hours in the presence of COG445 and cellular proliferation was measured by MTT reduction. […] Furthermore, COG445 inhibited MB231 cellular proliferation as determined by cell count (FIG. 14B). Approximately 6×10^4 cells were plated in growth media (RPMI+10% FBS) for 24-hours with increasing concentrations of COG445. […] However at concentrations ≧1 μM COG445, there appears to be a loss of cells. This is partially explained by decreased proliferation, although it is possible that the rate of cellular degradation was increased in the presence of COG445.

I: Ac-RQIKIWFQNRRMKWKKCLRVRLASHLRKLRKRLL-NH2 / II: Ac-RQIKIWFQNRRMKWKKCLRVRLASHLRKLRKRLL-NH2 (linker I:17-II:17 via BMOE) [COG449, COG112-C-BMOE-C-COG112]
EC50 at 72 h [1]: > 10000 nM
first adverse events ([2]; 20 mg/kg): mild edema in the front paws and lethargy
adverse effects ([2]; intravenous infusion, 10-15 mg/kg): without any observed adverse effects
cytotoxicity to breast cancer cell lines incl. MDA-231, MDA-468, HCC38 (breast cancer cell lines): cytotoxic to all cell lines
cytotoxic effects in mice (MDA-MB-231 xenografts): No cytotoxic effects
increase of relative specific activity of PP2A compared to untreated control (PP2A): approximately 45%
MTD at 24 h [3]: 12 mg/kg
EC50 (CLL cells): ~110 nM
cytotoxic effect in combination with Gefitinib (MDA-231 cells): robust cytotoxic effect
cytotoxic effect in combination with Sorafenib (MDA-231 cells): robust cytotoxic effect
EC50 [4]: 125 nM
cytotoxicity to U87MG cells (U87MG glioblastoma cells): cytotoxic

From patent publication US9809640B2, “ApoE peptide dimers and uses thereof” (priority 2010, dated 2017)
